# Laboratory results as given in the supplement of paper PMC5303821, “Major sulfonate transporter Soa1 in Saccharomyces cerevisiae and considerable substrate diversity in its fungal family” (Nature Communications, 2017).
# Counter-ions that a name gives are not always drawn.
# Columns and labels:
# Details in all cases: sulfur source concentration 200 µM; S. cerevisiae S288C/BY sul1Δ sul2Δ soa1Δ with transporter ortholog inserted at SOA1 locus; sulfur-free B medium, 4% glucose, pH 6.5, sole sulfur source
# [1] = test system: Aspergillus nidulans (IAM 2006)_astA; assay: lag phase before growth; higher = slower start of growth
# Experimental: (§1)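 S. cerevisiae sul1Δ sul2Δ soa1Δ strains expressing 20 fungal SOA1 orthologs (or no transporter, 'soa1 del') were grown in liquid sulfur-free B medium, 4% glucose, pH 6.5 (7 mM K2HPO4). The strains were sulfur-starved for 3 days beforehand. Each sulfur compound was the sole sulfur source at 200 µM (sulfate also at 40 mM). OD600 curves of duplicate cultures were averaged and fitted (logistic / Richards, GroFit) to give maximal growth rate, maximal density and lag phase; temperature not stated.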
# [2] = test system: Metarhizium robertsii_XP_007823832; assay: as above
# Experimental: as §1
# [3] = test system: Ogataea parapolymorpha_XP_013935289; assay: as above
# Experimental: as §1
# [4] = test system: Saccharomyces cerevisiae_SOA1; assay: as above
# Experimental: as §1
# [5] = test system: Aspergillus nidulans (IAM 2006)_astA; assay: maximal culture density with compound as sole sulfur source (OD600); higher = better growth
# Experimental: as §1
# [6] = test system: Aspergillus nidulans_CBF74694; assay: as above
# Experimental: as §1
# [7] = test system: Aspergillus nidulans_CBF80346; assay: as above
# Experimental: as §1
# [8] = test system: Aspergillus nidulans_XP_660563; assay: as above
# Experimental: as §1
# [9] = test system: Aspergillus nidulans_XP_660670; assay: as above
# Experimental: as §1
# [10] = test system: Aspergillus nidulans_XP_661711; assay: as above
# Experimental: as §1
# [11] = test system: Aspergillus nidulans_XP_661733; assay: as above
# Experimental: as §1
# [12] = test system: Aspergillus nidulans_XP_681611; assay: as above
# Experimental: as §1
# [13] = test system: Fusarium oxysporum_ENH65823; assay: as above
# Experimental: as §1
# [14] = test system: Metarhizium robertsii_XP_007821441; assay: as above
# Experimental: as §1
# [15] = test system: Metarhizium robertsii_XP_007822519; assay: as above
# Experimental: as §1
# [16] = test system: Metarhizium robertsii_XP_007823832; assay: as above
# Experimental: as §1
# [17] = test system: Ogataea parapolymorpha_XP_013932458; assay: as above
# Experimental: as §1
# [18] = test system: Ogataea parapolymorpha_XP_013935289; assay: as above
# Experimental: as §1
# [19] = test system: Ogataea parapolymorpha_XP_013936897; assay: as above
# Experimental: as §1
# [20] = test system: Saccharomyces cerevisiae_SOA1; assay: as above
# Experimental: as §1
# [21] = test system: Saccharomyces eubayanus_SOA1; assay: as above
# Experimental: as §1
# [22] = test system: Saccharomyces eubayanus_SOA2; assay: as above
# Experimental: as §1
# [23] = test system: Saccharomyces uvarum_SOA1; assay: as above
# Experimental: as §1
# [24] = test system: Saccharomyces uvarum_SOA2; assay: as above
# Experimental: as §1
# soa1 del [25] = assay: as above
# Experimental: as §1
# [26] = test system: Aspergillus nidulans (IAM 2006)_astA; assay: maximal growth rate with compound as sole sulfur source (OD600 per h); higher = better growth / uptake of the sulfur source
# Experimental: as §1
# [27] = test system: Aspergillus nidulans_CBF74694; assay: as above
# Experimental: as §1
# [28] = test system: Aspergillus nidulans_CBF80346; assay: as above
# Experimental: as §1
# [29] = test system: Aspergillus nidulans_XP_660563; assay: as above
# Experimental: as §1
# [30] = test system: Aspergillus nidulans_XP_660670; assay: as above
# Experimental: as §1
# [31] = test system: Aspergillus nidulans_XP_661711; assay: as above
# Experimental: as §1
# [32] = test system: Aspergillus nidulans_XP_661733; assay: as above
# Experimental: as §1
# [33] = test system: Aspergillus nidulans_XP_681611; assay: as above
# Experimental: as §1
# [34] = test system: Fusarium oxysporum_ENH65823; assay: as above
# Experimental: as §1
# [35] = test system: Metarhizium robertsii_XP_007821441; assay: as above
# Experimental: as §1
# [36] = test system: Metarhizium robertsii_XP_007822519; assay: as above
# Experimental: as §1
# [37] = test system: Metarhizium robertsii_XP_007823832; assay: as above
# Experimental: as §1
# [38] = test system: Ogataea parapolymorpha_XP_013932458; assay: as above
# Experimental: as §1
# [39] = test system: Ogataea parapolymorpha_XP_013935289; assay: as above
# Experimental: as §1
# [40] = test system: Ogataea parapolymorpha_XP_013936897; assay: as above
# Experimental: as §1
# [41] = test system: Saccharomyces cerevisiae_SOA1; assay: as above
# Experimental: as §1
# [42] = test system: Saccharomyces eubayanus_SOA1; assay: as above
# Experimental: as §1
# [43] = test system: Saccharomyces eubayanus_SOA2; assay: as above
# Experimental: as §1
# [44] = test system: Saccharomyces uvarum_SOA1; assay: as above
# Experimental: as §1
# [45] = test system: Saccharomyces uvarum_SOA2; assay: as above
# Experimental: as §1
# soa1 del [46] = assay: as above
# Experimental: as §1
# [47] = test system: Saccharomyces uvarum_SOA2; assay: lag phase before growth; higher = slower start of growth
# Experimental: as §1
smiles,measurement,setting,value
C[N+](C)(C)CCOS(=O)(=O)[O-] [Choline sulfate],lag phase before growth,[1],6.39 h
same,lag phase before growth,[2],8.32 h
same,lag phase before growth,[3],19.4 h
same,lag phase before growth,[4],28.7 h
same,maximal culture density,[5],1.61
same,maximal culture density,[6],0.215
same,maximal culture density,[7],0.245
same,maximal culture density,[8],0.381
same,maximal culture density,[9],0.282
same,maximal culture density,[10],0.282
same,maximal culture density,[11],0.257
same,maximal culture density,[12],0.352
same,maximal culture density,[13],0.284
same,maximal culture density,[14],0.25
same,maximal culture density,[15],0.238
same,maximal culture density,[16],1.61
same,maximal culture density,[17],0.288
same,maximal culture density,[18],1.6
same,maximal culture density,[19],0.335
same,maximal culture density,[20],1.59
same,maximal culture density,[21],0.49
same,maximal culture density,[22],0.202
same,maximal culture density,[23],0.69
same,maximal culture density,[24],0.237
same,maximal culture density,soa1 del [25],0.22
same,maximal growth rate,[26],0.0987
same,maximal growth rate,[27],0.00254
same,maximal growth rate,[28],0.00384
same,maximal growth rate,[29],0.0061
same,maximal growth rate,[30],0.00346
same,maximal growth rate,[31],0.00345
same,maximal growth rate,[32],0.00364
same,maximal growth rate,[33],0.0057
same,maximal growth rate,[34],0.00381
same,maximal growth rate,[35],0.00312
same,maximal growth rate,[36],0.00309
same,maximal growth rate,[37],0.0809
same,maximal growth rate,[38],0.00365
same,maximal growth rate,[39],0.072
same,maximal growth rate,[40],0.00441
same,maximal growth rate,[41],0.0576
same,maximal growth rate,[42],0.0058
same,maximal growth rate,[43],0.00319
same,maximal growth rate,[44],0.00649
same,maximal growth rate,[45],0.00318
same,maximal growth rate,soa1 del [46],0.00393
O=S(=O)(O)CCO [Isethionate],maximal culture density,[5],0.489
same,maximal culture density,[6],0.195
same,maximal culture density,[7],0.213
same,maximal culture density,[8],0.332
same,maximal culture density,[9],0.232
same,maximal culture density,[10],0.233
same,maximal culture density,[11],0.269
same,maximal culture density,[12],0.373
same,maximal culture density,[13],0.233
same,maximal culture density,[14],0.223
same,maximal culture density,[15],1.59
same,maximal culture density,[16],0.501
same,maximal culture density,[17],0.242
same,maximal culture density,[18],1.59
same,maximal culture density,[19],0.289
same,maximal culture density,[20],1.61
same,maximal culture density,[21],1.58
same,maximal culture density,[22],1.7
same,maximal culture density,[23],1.59
same,maximal culture density,[24],1.71
same,maximal culture density,soa1 del [25],0.235
same,maximal growth rate,[26],0.0178
same,maximal growth rate,[27],0.00301
same,maximal growth rate,[28],0.00382
same,maximal growth rate,[29],0.00647
same,maximal growth rate,[30],0.00369
same,maximal growth rate,[31],0.00367
same,maximal growth rate,[32],0.00489
same,maximal growth rate,[33],0.00854
same,maximal growth rate,[34],0.00374
same,maximal growth rate,[35],0.00324
same,maximal growth rate,[36],0.0519
same,maximal growth rate,[37],0.0144
same,maximal growth rate,[38],0.00421
same,maximal growth rate,[39],0.0699
same,maximal growth rate,[40],0.0049
same,maximal growth rate,[41],0.0707
same,maximal growth rate,[42],0.0612
same,maximal growth rate,[43],0.0595
same,maximal growth rate,[44],0.0659
same,maximal growth rate,[45],0.0695
same,maximal growth rate,soa1 del [46],0.00355
NCCS(=O)(=O)O [Taurine],lag phase before growth,[3],7.77 h
same,lag phase before growth,[4],9.53 h
same,lag phase before growth,[47],7.75 h
same,maximal culture density,[5],0.515
same,maximal culture density,[6],0.187
same,maximal culture density,[7],0.217
same,maximal culture density,[8],0.311
same,maximal culture density,[9],0.214
same,maximal culture density,[10],0.215
same,maximal culture density,[11],0.228
same,maximal culture density,[12],0.305
same,maximal culture density,[13],0.195
same,maximal culture density,[14],0.219
same,maximal culture density,[15],0.213
same,maximal culture density,[16],0.498
same,maximal culture density,[17],0.245
same,maximal culture density,[18],1.6
same,maximal culture density,[19],0.317
same,maximal culture density,[20],1.4
same,maximal culture density,[21],0.284
same,maximal culture density,[22],0.258
same,maximal culture density,[23],0.292
same,maximal culture density,[24],0.828
same,maximal culture density,soa1 del [25],0.217
same,maximal growth rate,[26],0.0198
same,maximal growth rate,[27],0.00281
same,maximal growth rate,[28],0.00339
same,maximal growth rate,[29],0.00581
same,maximal growth rate,[30],0.00383
same,maximal growth rate,[31],0.0038
same,maximal growth rate,[32],0.00417
same,maximal growth rate,[33],0.0063
same,maximal growth rate,[34],0.00349
same,maximal growth rate,[35],0.0033
same,maximal growth rate,[36],0.00328
same,maximal growth rate,[37],0.0141
same,maximal growth rate,[38],0.00448
same,maximal growth rate,[39],0.0523
same,maximal growth rate,[40],0.0048
same,maximal growth rate,[41],0.0291
same,maximal growth rate,[42],0.00369
same,maximal growth rate,[43],0.00328
same,maximal growth rate,[44],0.00382
same,maximal growth rate,[45],0.0111
same,maximal growth rate,soa1 del [46],0.00366
